US20230330058A1, “SENOLYTIC COMPOUNDS AND COMPOSITIONS” (NUCHIDO LIMITED, priority 2020, published 2023)
Entries after “also recorded” stand apart in the source; their conditions may differ. Where a name gives a salt, the structure may show the parent alone.

Legend:
[1] = test system: platelets; settings: originally intended as anti-cancer drugs; cited from earlier work
[2] = test system: senescent Human Dermal Fibroblasts (HDFs) versus non-senescent ('young') HDFs; experiment: Senescence-specific assay: co-culture of labelled senescent and non-senescent cells, automated counting before and after 72 h incubation; assay type: cell-based; settings: for selective senolytic activity: single agent, killing senescent cells over non-senescent cells; for increase of the senolytic effect of navitoclax: uncoupler together with navitoclax, efficacy at lower navitoclax concentrations (FIGS. 11, 12; senescent and proliferating cells); for senolytic activity in galactose media: glycolysis suppressed (FIGS. 5, 13); for selective senolytic activity at concentrations reached in humans: concentrations already known to be reached safely in humans, achievable blood plasma concentrations (FIG. 3)
Description: We developed a senescence-specific assay, employing automated counting of differentially labelled senescent and non-senescent cells in co-culture, before and after 72h incubation with each molecule or molecule combination.
Human Dermal Fibroblasts (HDFs) expressing pSLIEW (Green), or mCherry (Red) are used in the assay. The cells expressing pSLIEW (Green) are subjected to 20 Gy X-irradiation to induce senescence.
The test molecule is added to the co-culture, and the number of green and red cells are counted before and after 72 h incubation. A selective senolytic would be expected to diminish the proportion of green-expressing senescent cells, while leaving the number of red-expressing young cells unchanged or increased due to replication during the incubation period.
The experiments were carried out in 96-well plates, and the cells were imaged using fluorescent microscopy. The images were analysed with ICY software for automated cell counting, and both numbers of labelled cells and their other visible characteristics such as size were recorded.

[3] = test system: aging in animals; settings: cited from earlier work
[4] = test system: senescent cells; settings: cited from earlier work

| SMILES | selective senolytic activity [2] | other results |
| --- | --- | --- |
| Cc1c(-c2ccc(N3CCc4cccc(C(=O)Nc5nc6ccccc6s5)c4C3)nc2C(=O)O)cnn1CC12CC3CC(CC(C3)C1)C2 [A-1331852, 3-(1-(((3r,5r,7r)-adamantan-1-yl)methyl)-5-methyl-1H-pyrazol-4-yl)-6-(8-(benzo[d]thiazol-2-ylcarbamoyl)-3,4-dihydroisoquinolin-2(1H)-yl)picolinic acid] |  | side-effect profile [1]: thrombocytopaenia |
| C[C@@H]1CC[C@H]2[C@@H](C)C(=O)O[C@@H]3O[C@@]4(C)CC[C@@H]1[C@]32OO4 [Artemisinin] | showed selective senolytic activity |  |
| CN1C(=O)C(C(=O)Nc2nncs2)c2cc3occc3cc21 (stereo not drawn) [BML-288] | showed selective senolytic activity |  |
| CC(C)(C)c1cc(O)c(C(C)(C)C)cc1O [BTBHQ, 2,5-di-tert-butylhydroquinone] | showed selective senolytic activity |  |
| N#CC(C#N)=NNc1cccc(Cl)c1 [CCCP, Carbonyl cyanide m-chlorophenyl hydrazone] |  | increase of the senolytic effect of navitoclax [2]: increases the senolytic effect of navitoclax |
| O=[N+]([O-])c1ccc(O)c([N+](=O)[O-])c1 [DNP, 2,4-Dinitrophenol] | selective senolytic activity |  |
| O=C(O[C@@H]1Cc2c(O)cc(O)cc2O[C@@H]1c1cc(O)c(O)c(O)c1)c1cc(O)c(O)c(O)c1 [EGCG, epigallocatechin gallate] | showed selective senolytic activity |  |
| N#CC(C#N)=NNc1ccc(OC(F)(F)F)cc1 [FCCP, Carbonyl cyanide-p-trifluoromethoxyphenylhydrazone] | selective senolytic activity | increase of the senolytic effect of navitoclax [2]: increases the senolytic effect of navitoclax |
| CN1CCc2ccccc2Cc2[nH]c3ccccc3c2CC1 [LE300, 6,7,8,9,14,15-hexahydro-7-methyl-5H-indolo[3,2-f][3]benzazecine] | showed selective senolytic activity |  |
| O=C(O)CCCCC1CCSS1 (stereo not drawn) [alpha lipoic acid] | showed selective senolytic activity |  |
| O=c1cc(-c2ccc(O)cc2)oc2cc(O)cc(O)c12 [apigenin] | showed selective senolytic activity |  |
| OCCN1CCN(CCCN2c3ccccc3Sc3ccc(C(F)(F)F)cc32)CC1 [fluphenazine dihydrochloride] |  | selective senolytic activity ([2]; dihydrochloride): showed selective senolytic activity; selective senolytic activity ([2]; listed as fluphenazine hydrochloride, dihydrochloride): selective senolytic activity |
| C=CCc1ccc(O)c(-c2ccc(O)c(CC=C)c2)c1 [honokiol] | showed selective senolytic activity |  |
| C=CCc1ccc(O)c(-c2cc(CC=C)ccc2O)c1 [magnolol] | showed selective senolytic activity |  |
| CN(C)C(=N)N=C(N)N [metformin] |  | senolytic activity in galactose media [2]: senolytic at physiological doses if glycolysis is suppressed; also recorded: senolytic when glycolysis is suppressed; also recorded: displays senolytic activity; effect on aging in animals [3]: can delay aging in animals |
| CC1(C)CCC(c2ccc(Cl)cc2)=C(CN2CCN(c3ccc(C(=O)NS(=O)(=O)c4ccc(N[C@H](CCN5CCOCC5)CSc5ccccc5)c(S(=O)(=O)C(F)(F)F)c4)cc3)CC2)C1 [navitoclax] |  | side-effect profile [1]: thrombocytopaenia; senolytic agent in animal studies [4]: inducing apoptosis in senescent cells, but less in non-senescent cells |
| O=C(Nc1ccc([N+](=O)[O-])cc1Cl)c1cc(Cl)ccc1O [niclosamide] | showed selective senolytic activity | selective senolytic activity at concentrations reached in humans [2]: selective senolytic activity; selective senolytic activity at concentrations reached in humans ([2]; listed as Niclosamide): selectively senolytic at concentrations that are already known to be reached safely in humans |
| NC(=O)c1cccnc1 [nicotinamide] | showed selective senolytic activity |  |
| CC(=O)Oc1ccccc1C(=O)Nc1ncc([N+](=O)[O-])s1 [nitazoxanide] |  | senolytic activity in galactose media [2]: selective senolytic activity |
| O=c1c(O)c(-c2ccc(O)c(O)c2)oc2cc(O)cc(O)c12 [quercetin] | showed selective senolytic activity |  |
| Oc1ccc(C=Cc2cc(O)cc(O)c2)cc1 [resveratrol] | showed selective senolytic activity |  |
